Source: publication PMC7221803, “Structure–Activity Relationships and Biological Evaluation of 7-Substituted Harmine Analogs for Human β-Cell Proliferation” (Molecules, 2020)
Several values for one entry are separate records, joined by “and”; a condition that tells them apart may be missing. Identical values can stand only once. Like-named read-outs stand apart in the source and are kept apart here.

Columns and labels:
DYRK1A = DYRK1A (Homo sapiens, UniProt Q13627); assay: FRET-based LanthaScreen Eu Kinase Binding Assay for DYRK1A; conditions: for inhibition at 0.3 µM: read-out: % DYRK1A Inhibition 300 nM; for inhibition at 1 µM: read-out: % DYRK1A Inhibition 1000 nM; for DYRK1A inhibition (result in words): in vitro at the concentrations tested (1000 nM and 300 nM); for IC50: 10 point LanthaScreen Eu Kinase Binding Assay; for fold less potent DYRK1A inhibition as compared to harmine: relative to harmine (27 nM)
Description: Compounds were tested for DYRK1A binding activity by a commercial kinase profiling services, Life Technologies which uses the FRET-based LanthaScreen® Eu Kinase Binding Assay. Compounds were screened for DYRK1A activity at concentrations of 1000 nM and 300 nM in duplicates. The IC50 was determined by 10 point LanthaScreen® Eu Kinase Binding Assay in duplicates.

human β-cells = assay: Human β-cell proliferation assay (Ki67-insulin co-immunolabeling, dispersed human islets); format: cell-based; conditions: for human β-cell proliferation at screening concentration: 10 μM, Ki-67-insulin co-immunolabeling after 4 days, n = 3
Description: Human pancreatic islets were obtained from the NIH/NIDDK-supported Integrated Islet Distribution Program (IIDP) Duarte, CA, USA (https://iidp.coh.org) and studied using protocols that have been published in detail. Briefly, islets were first dispersed with Accutase (Sigma, St. Louis, MO, USA) onto coverslips, and treated with vehicle (0.1% DMSO) or with harmine-related compounds in RPMI1640 complete medium for 96 h. Then the cells were then, fixed with formaldehyde and immunolabeled for insulin and Ki67 as described below. Total insulin-positive cells and cells double positive Ki67 and insulin positive cells were imaged and counted. Islets from 3–5 different adult donors were tested as described in Figure 4. At least 1000 β-cells were counted for human islet donor.

[1] = compound at 1000 nM, duplicates
[2] = 1-2b at 30 μM vs harmine at 10 μM

Row | SMILES | inhibition at 0.3 µM (DYRK1A; compound at 300 nM, duplicates) [%] | inhibition at 1 µM (DYRK1A; [1]) [%] | also measured
1 | Cc1nccc2c1[nH]c1cc(OCC(N)=O)ccc12 [1-3a, 2-(7-Oxy-1-methyl-9-H-b-carbolin)acetamide] | 10 | 30 | 
2 | Cc1nccc2c1[nH]c1cc(N)ccc12 [1-9, 7-Amino-1-methyl-9H-b-carboline] |  |  | DYRK1A inhibition (result in words) (DYRK1A): completely lost its DYRK1A inhibitory activity; inhibition at 0.3 µM (DYRK1A): 8%; inhibition at 1 µM (DYRK1A): 21%
3 | Cc1nccc2c1[nH]c1cc(OCCNC(=O)OC(C)(C)C)ccc12 [1-2k, 2-(7-Oxy-1-methyl-9-H-b-carbolin)ethyl tert-butyl carbamate] | 35 | 61 | 
4 | Cc1nccc2c1[nH]c1cc(OCCOCCNC(=O)OC(C)(C)C)ccc12 [1-2n, 2-((7-Oxy-1-methyl-9-H-b-carbolin)ethoxy)ethyl tert-butyl carbamate] | 27 | 48 | 
5 | Cc1nccc2c1[nH]c1cc(OCCCNC(=O)OC(C)(C)C)ccc12 [1-2l, 3-(7-Oxy-1-methyl-9-H-b-carbolin)propyl tert-butyl carbamate] | 24 | 50 | 
6 | Cc1nccc2c1[nH]c1cc(OCCC(=O)O)ccc12 [1-4b, 3-(7-Oxy-1-methyl-9-H-b-carbolin)propionic acid] |  |  | IC50 (DYRK1A; duplicates): 1810 ± 101 nM
7 | Cc1nccc2c1[nH]c1cc(OCC(=O)O)ccc12 [1-4a, 2-(7-Oxy-1-methyl-9-H-b-carbolin)acetic acid] |  |  | inhibition at 0.3 µM (DYRK1A): 3%; inhibition at 1 µM (DYRK1A): 6%
8 | COC(=O)COc1ccc2c(c1)[nH]c1c(C)nccc12 [1-2a, 2-(7-Oxy-1-methyl-9-H-b-carbolin)acetic acid methyl ester] |  |  | IC50 (DYRK1A; duplicates): 194 ± 11.7 nM; inhibition at 0.3 µM (DYRK1A): 58%; inhibition at 1 µM (DYRK1A): 85%
9 | Cc1nccc2c1[nH]c1cc(OCCCCNC(=O)OC(C)(C)C)ccc12 [1-2m, 4-(7-Oxy-1-methyl-9-H-b-carbolin)butyl tert-butyl carbamate] | 31 | 58 | 
10 | COCCOc1ccc2c(c1)[nH]c1c(C)nccc12 [1-2o, 2-(7-oxy-1-methyl-9-H-b-carbolin)methoxyethyl] |  |  | DYRK1A inhibition (result in words) (DYRK1A): not favorable for the DYRK1A inhibition; inhibition at 0.3 µM (DYRK1A): 23%; inhibition at 1 µM (DYRK1A): 48%
11 | Cc1nccc2c1[nH]c1cc(OCCCN)ccc12 [1-5b, 3-(7-Oxy-1-methyl-9-H-b-carbolin)propylamine hydrochloric acid] |  |  | inhibition at 0.3 µM (DYRK1A): 8%; inhibition at 1 µM (DYRK1A): 28%
12 | CCOCCOc1ccc2c(c1)[nH]c1c(C)nccc12 [1-2p, 3-(7-Oxy-1-methyl-9-H-b-carbolin)ethoxyethyl] | 19 | 37 | DYRK1A inhibition (result in words) (DYRK1A): not favorable for the DYRK1A inhibition
13 | COC(=O)CCOc1ccc2c(c1)[nH]c1c(C)nccc12 [1-2b, 3-(7-Oxy-1-methyl-9-H-b-carbolin)propionic acid methyl ester] |  |  | IC50 (DYRK1A; duplicates): 89 nM and 89.7 nM; fold less potent DYRK1A inhibition as compared to harmine (DYRK1A): 4 fold and ~ 3 fold; human β-cell proliferation at screening concentration (human β-cells): exhibit human β-cell proliferation; human β-cell proliferation relative to harmine (in words) (human β-cells; [2]): half that of harmine; maximal human β-cell proliferation as % that of harmine (human β-cells; [2]): 66%; human β-cell proliferation dose-response (human β-cells; dose-response up to 30 μM, n = 3 human islet donors for each dose): induced proliferation in a dose-dependent manner
14 | COC(=O)CCCOc1ccc2c(c1)[nH]c1c(C)nccc12 [1-2c, 4-(7-Oxy-1-methyl-9-H-b-carbolin)butnoic acid methyl ester] | 47 | 78 | 
15 | COC(=O)CCCCCOc1ccc2c(c1)[nH]c1c(C)nccc12 [1-2e, 6-(7-Oxy-1-methyl-9-H-b-carbolin)hexanoic acid methyl ester] |  |  | IC50 (DYRK1A; duplicates): 134 ± 4.55 nM; inhibition at 0.3 µM (DYRK1A): 56%; inhibition at 1 µM (DYRK1A): 81%
16 | Cc1nccc2c1[nH]c1cc(OC(=O)NC(C)C)ccc12 [1-12, 1-Methyl-9H-pyrido[3,4-b]indol-7-yl isopropylcarbamate] |  |  | DYRK1A inhibition (result in words) (DYRK1A): moderately active; inhibition at 0.3 µM (DYRK1A): 42%; inhibition at 1 µM (DYRK1A): 69%
17 | COC(=O)CCCCOc1ccc2c(c1)[nH]c1c(C)nccc12 [1-2d, 5-(7-Oxy-1-methyl-9-H-b-carbolin)pentanoic acid methyl ester] | 35 | 67 | 
18 | Cc1nccc2c1[nH]c1cc(OCCC(N)=O)ccc12 [1-3b, 3-(7-Oxy-1-methyl-9-H-b-carbolin)propionamide] |  |  | IC50 (DYRK1A; duplicates): 91 nM; fold less potent DYRK1A inhibition as compared to harmine (DYRK1A): ~ 3 fold; human β-cell proliferation at screening concentration (human β-cells): exhibit human β-cell proliferation

Second part, led by results:

Row | inhibition at 0.3 µM (DYRK1A; compound at 300 nM, duplicates) [%] | inhibition at 1 µM (DYRK1A; [1]) [%] | SMILES | also measured
19 | 43 | 74 | Cc1nccc2c1[nH]c1cc(OCCCCCC(=O)O)ccc12 [1-4e, 6-(7-Oxy-1-methyl-9-H-b-carbolin)hexanoic acid] | 
20 | 12 | 25 | Cc1nccc2c1[nH]c1cc(OCCN)ccc12 [1-5a, 2-(7-Oxy-1-methyl-9-H-b-carbolin)ethylamine hydrochloric acid] | 
21 | 6 | 19 | Cc1nccc2c1[nH]c1cc(OCCCC(=O)O)ccc12 [1-4c, 4-(7-Oxy-1-methyl-9-H-b-carbolin)butnoic acid] | 
22 | 20 | 44 | Cc1nccc2c1[nH]c1cc(OCCCCC(=O)O)ccc12 [1-4d, 5-(7-Oxy-1-methyl-9-H-b-carbolin)pentanoic acid] | 
23 | 22 | 49 | CC(=O)NCCCOc1ccc2c(c1)[nH]c1c(C)nccc12 [1-6b, 3-(7-Oxy-1-methyl-9-H-b-carbolin) -2-acetyl-propylamine] | 
24 | 17 | 41 | CC(=O)NCCOCCOc1ccc2c(c1)[nH]c1c(C)nccc12 [1-6d, 2-((7-Oxy-1-methyl-9-H-b-carbolin)ethoxy)-2-acetyl-ethylamine] | 
25 | 24 | 49 | CC(=O)NCCOc1ccc2c(c1)[nH]c1c(C)nccc12 [1-6a, 2-(7-Oxy-1-methyl-9-H-b-carbolin)-2-acetyl-ethylamine] | 
26 | 39 | 67 | Cc1nccc2c1[nH]c1cc(OCCCCCC(N)=O)ccc12 [1-3e, 6-(7-Oxy-1-methyl-9-H-b-carbolin)hexanamide] | 
27 | 45 | 69 | CC(=O)NCCCCOc1ccc2c(c1)[nH]c1c(C)nccc12 [1-6c, 4-(7-Oxy-1-methyl-9-H-b-carbolin) -2-acetyl-butylamine] | 
28 | 67 | 88 | Cc1nccc2c1[nH]c1cc(OCCCCC(N)=O)ccc12 [1-3d, 5-(7-Oxy-1-methyl-9-H-b-carbolin)pentanamide] | 
29 | 15 | 32 | Cc1nccc2c1[nH]c1cc(OCCOCCN)ccc12 [1-5d, 2-((7-Oxy-1-methyl-9-H-b-carbolin)ethoxy)ethylamine hydrochloric acid] | 
30 | 48 | 77 | Cc1nccc2c1[nH]c1cc(NC(=O)c3ccccc3)ccc12 [1-11, 7-Benzamide-1-methyl-9H-b-carboline] | IC50 (DYRK1A; duplicates): 389 ± 32.6 nM; DYRK1A inhibition (result in words) (DYRK1A): partially recovered
31 | 32 | 58 | Cc1nccc2c1[nH]c1cc(OCCCC(N)=O)ccc12 [1-3c, 4-(7-Oxy-1-methyl-9-H-b-carbolin)butanamide] | 
32 | 15 | 42 | Cc1nccc2c1[nH]c1cc(OCCCCN)ccc12 [1-5c, 4-(7-Oxy-1-methyl-9-H-b-carbolin)butylamine hydrochloric acid] | 
